{"source": "patent US20250255867A1", "about": "(Kadmon Corporation, LLC, priority 2022, published 2025)", "key": {"subjects with BOS [1]": {"tested_on": "subjects with BOS", "experiment": "Example 3 combined analysis: lung-specific NIH response in BOS", "format": "in vivo, human", "method": "Subjects enrolled in the clinical studies described in Examples 1 and 2 served as the population for the combined analysis.\n(§1) Patients with BOS were identified as: 1) % predicted forced expiratory volume in 1 second (% FEV1) of £79% at enrollment, and 2) clinician attribution of lung disease due to cGVHD.\n(§2) In Example 1, lung function assessments were conducted at baseline and on Day 1 of each cycle for patients with suspected of known lung involvement. In Example 2, lung function assessments were conducted at baseline and at the time of response assessments: Day 1 of cycles 2-5 and then on Day 1 of every other cycle thereafter.\nThe severity of cGVHD was graded according to the 2014 NIH Consensus Criteria. […] According to these criteria, a complete response (CR) in the lung is defined as normal % FEV1 after previous involvement or in the absence of PFTs, a NIH lung Symptom Score of 0 after previous involvement. Partial response (PR) in the lung is defined as an increase by 10% predicted absolute value of % FEV1 or in the absence of PFTs, a decrease in NIH Lung Symptom Score by 1 or more points. Progression of lung disease is defined as a decrease by 10% predicted absolute value of % FEV1 or in the absence of PFTs, an increase in NIH Lung Symptom Score by 1 or more points, except 0 to 1.\nBaseline characteristics were reported descriptively. Univariable and multivariable logistic regression analysis was performed to investigate clinical factors (listed in Table 1) that were associated with NIH lung response. Correlation analysis was performed to assess correlation among lung response metrics. All testing was two-sided at the significance level of 0.05. All analyses were performed using SAS 9.3 (SAS Institute Inc., Cary, NC), and R v3.5.2 (the CRAN project)."}, "subjects with BOS [2]": {"tested_on": "subjects with BOS", "experiment": "Example 3: FEV1 evaluation in BOS", "format": "in vivo, human", "method": "as §1, §2"}, "[3]": {"settings": "NIH Lung Score at baseline 1, 30 subjects"}, "[4]": {"settings": "NIH Lung Score at baseline 2, 23 subjects"}, "[5]": {"settings": "NIH Lung Score at baseline 3, 6 subjects"}}}
{"smiles": "CC(C)NC(=O)COc1cccc(-c2nc(Nc3ccc4[nH]ncc4c3)c3ccccc3n2)c1", "note": "[Belumosudil, 2-{3-[4-(1H-indazol-5-ylamino)-2-quinazolinyl]phenoxy}-N-(propan-2-yl) acetamide]", "values": [{"measurement": "Best ORR for pulmonary cGVHD, NIH response criteria", "setting": "subjects with BOS [1]; 59 subjects", "value": 32, "unit": "%"}, {"measurement": "PR for pulmonary cGVHD, NIH response criteria", "setting": "subjects with BOS [1]; 59 subjects", "value": 17, "unit": "%"}, {"measurement": "Lung-specific NIH response, Best ORR", "setting": "subjects with BOS [1]; [3]", "value": 50, "unit": "%"}, {"measurement": "Lung-specific NIH response, CR rate", "setting": "subjects with BOS [1]; [3]", "value": 27, "unit": "%"}, {"measurement": "Lung-specific NIH response, PR rate", "setting": "subjects with BOS [1]; [3]", "value": 23, "unit": "%"}, {"measurement": "Lung-specific NIH response, Best ORR", "setting": "subjects with BOS [1]; [4]", "value": 17, "unit": "%"}, {"measurement": "Lung-specific NIH response, CR rate", "setting": "subjects with BOS [1]; [4]", "value": 4, "unit": "%"}, {"measurement": "Lung-specific NIH response, PR rate", "setting": "subjects with BOS [1]; [4]", "value": 13, "unit": "%"}, {"measurement": "Lung-specific NIH response, Best ORR", "setting": "subjects with BOS [1]; [5]", "value": 0, "unit": "%"}, {"measurement": "Lung-specific NIH response, CR rate", "setting": "subjects with BOS [1]; [5]", "value": 0, "unit": "%"}, {"measurement": "Lung-specific NIH response, PR rate", "setting": "subjects with BOS [1]; [5]", "value": 0, "unit": "%"}, {"measurement": "Lung-specific NIH response, Best ORR", "setting": "subjects with BOS [1]; Total, 59 subjects", "value": 32, "unit": "%"}, {"measurement": "Lung-specific NIH response, CR rate", "setting": "subjects with BOS [1]; Total, 59 subjects", "value": 15, "unit": "%"}, {"measurement": "Lung-specific NIH response, PR rate", "setting": "subjects with BOS [1]; Total, 59 subjects", "value": 17, "unit": "%"}, {"measurement": "Best lung ORR", "setting": "subjects with BOS [1]; baseline NIH lung score 1", "value": 50, "unit": "%"}, {"measurement": "Lung CR", "setting": "subjects with BOS [1]; baseline NIH lung score 1", "value": 27, "unit": "%"}, {"measurement": "Lung PR", "setting": "subjects with BOS [1]; baseline NIH lung score 1", "value": 23, "unit": "%"}, {"measurement": "Best lung ORR", "setting": "subjects with BOS [1]; baseline NIH lung score 2", "value": 17, "unit": "%"}, {"measurement": "Lung CR", "setting": "subjects with BOS [1]; baseline NIH lung score 2", "value": 4, "unit": "%"}, {"measurement": "Lung PR", "setting": "subjects with BOS [1]; baseline NIH lung score 2", "value": 13, "unit": "%"}, {"measurement": "Best ORR for lung cGVHD, NIH response with PFTs alone", "setting": "subjects with BOS [1]; in vivo", "value": 24, "unit": "%"}, {"measurement": "CR for lung cGVHD, PFTs alone", "setting": "subjects with BOS [1]; in vivo", "value": 10, "unit": "%"}, {"measurement": "PR for lung cGVHD, PFTs alone", "setting": "subjects with BOS [1]; in vivo", "value": 14, "unit": "%"}, {"measurement": "Median time to first NIH lung response", "setting": "subjects with BOS [1]; range, 3-39", "value": 5, "unit": "cycles"}, {"measurement": "Median time to best NIH lung response", "setting": "subjects with BOS [1]; range, 3-41", "value": 7, "unit": "cycles"}, {"measurement": "Subjects with ^3 5% absolute improvement in % FEV1 from baseline", "setting": "subjects with BOS [2]; 59 subjects", "value": 39, "unit": "%"}, {"measurement": "Subjects with ^3 10% absolute improvement in % FEV1 from baseline", "setting": "subjects with BOS [2]; 59 subjects", "value": 22, "unit": "%"}, {"measurement": "Subjects with at least a 200 mL improvement in FEV1 from baseline", "setting": "subjects with BOS [2]; Example 2 subjects only", "value": 36, "unit": "%"}, {"measurement": "Subjects with ^3 5% absolute improvement in % FEV1", "setting": "subjects with BOS [2]; baseline NIH lung score 1", "value": 57, "unit": "%"}, {"measurement": "Subjects with ^3 5% absolute improvement in % FEV1", "setting": "subjects with BOS [2]; baseline NIH lung score 2", "value": 13, "unit": "%"}, {"measurement": "Subjects with ^3 5% absolute improvement in % FEV1", "setting": "subjects with BOS [2]; baseline NIH lung score 3", "value": 50, "unit": "%"}, {"measurement": "Subjects with at least a 200 mL improvement in FEV1", "setting": "subjects with BOS [2]; baseline lung score 1", "value": 41, "unit": "%"}, {"measurement": "Subjects with at least a 200 mL improvement in FEV1", "setting": "subjects with BOS [2]; baseline lung score 2", "value": 31, "unit": "%"}, {"measurement": "Subjects with 200 mL improvement in FEV1", "setting": "subjects with BOS [2]; non-responders", "value": 19, "unit": "%"}, {"measurement": "Subjects with ^3 5% absolute improvement in % FEV1", "setting": "subjects with BOS [2]; non-responders", "value": 18, "unit": "%"}, {"measurement": "Subjects with 200 mL improvement in FEV1", "setting": "subjects with BOS [2]; responders by NIH criteria", "value": 66, "unit": "%"}, {"measurement": "Subjects with ^3 5% absolute improvement in % FEV1", "setting": "subjects with BOS [2]; responders by NIH criteria", "value": 84, "unit": "%"}]}
